{"source": "patent US20210330611A1", "about": "“THERAPY FOR NEUROLOGICAL DISEASES/DISORDERS” (priority 2020, published 2021)", "key": {"primary rat microglia [1]": {"system": "primary rat microglia", "test": "Cell toxicity (dead cells, size <150 μm2) in LPS assay"}, "[2]": {"system": "LPS-induced microglia activation", "test": "Image-based assay of LPS-induced microglia activation (HTS and dose response)", "format": "cell-based, rat", "details": "for inhibition at 10 µM: Rattus norvegicus, Microglia, read-out: LPS % inhibition"}, "[3]": {"system": "fibrin-induced microglia activation", "test": "Image-based assay of fibrin-induced microglia activation (HTS and dose response)", "format": "cell-based, rat", "details": "for inhibition at 10 µM: Rattus norvegicus, Microglia, read-out: Fibrin % inhibition"}, "[4]": {"system": "fibrin- and LPS-induced microglia activation", "test": "cells", "format": "cell-based, rat"}, "primary rat microglia [5]": {"system": "primary rat microglia", "test": "Cell toxicity (dead cells, size <150 μm2) in coated fibrin (cFib) assay;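 also: share of dead cells sized under 150 µm2 at 10 µM in fibrin-stimulated microglia HTS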"}, "[6]": {"details": "primary HTS, 10 μM, LPS assay, dead cells size <150 μm2"}, "[7]": {"details": "primary HTS, 10 μM, LPS-stimulated primary microglia"}, "[8]": {"details": "primary HTS, 10 μM, fibrin-stimulated primary microglia"}, "[9]": {"details": "primary HTS, 10 μM, fibrin assay, dead cells size <150 μm2"}, "[10]": {"details": "primary microglia HTS, 10 μM, LPS assay, cell size <150 μm^2 as marker of toxicity"}, "[11]": {"details": "primary microglia HTS, 10 μM, LPS-stimulated, cell size >800 μm^2 as marker of activation"}, "[12]": {"details": "primary microglia HTS, 10 μM, fibrin-stimulated, cell size >800 μm^2 as marker of activation"}, "[13]": {"details": "HTS of 1907 compounds, quadrant by fibrin and LPS inhibition"}, "[14]": {"details": "primary microglia HTS, 10 μM, fibrin assay, cell size <150 μm^2 as marker of toxicity"}, "[15]": {"details": "primary microglia HTS, LPS stimulation, toxicity = cell size <150 μm2"}, "[16]": {"details": "48 h, primary microglia HTS, LPS stimulation, activation = cell size >800 μm2"}, "[17]": {"details": "primary microglia HTS, fibrin stimulation, activation = cell size >800 μm2"}, "[18]": {"details": "quadrant by fibrin and LPS inhibition in HTS of 1907 compounds"}, "[19]": {"details": "primary microglia HTS, fibrin stimulation, toxicity = cell size <150 μm2"}, "[20]": {"details": "primary microglia HTS, LPS stimulation, decreased size (<150 μm^2) as marker of toxicity"}, "[21]": {"details": "48 h, primary microglia HTS, LPS stimulation, increased cell size (>800 μm^2) as marker of activation"}, "[22]": {"details": "primary microglia HTS, fibrin stimulation, increased cell size (>800 μm^2) as marker of activation"}, "[23]": {"details": "primary microglia HTS, fibrin stimulation, decreased size (<150 μm^2) as marker of toxicity"}}, "note": "Where a name gives a salt, the structure may show the parent alone. Read-outs that look alike come from different tables or passages of the source."}
{"smiles": "CC(=O)NC1CCSC1=O", "note": "(stereo not drawn) [Citiolone]", "values": [{"measurement": "LPS % cell toxicity", "setting": "primary rat microglia [1]; [6]", "value": 0, "unit": "%"}, {"measurement": "inhibition at 10 µM", "setting": "[2]; [7]", "value": 7, "unit": "%"}, {"measurement": "inhibition at 10 µM", "setting": "[3]; [8]", "value": -32, "unit": "%"}, {"measurement": "Quadrant (FIG. 5b)", "setting": "[4]; primary HTS, 10 μM", "value": "Q4"}, {"measurement": "Fibrin % cell toxicity", "setting": "primary rat microglia [5]; [9]", "value": 0, "unit": "%"}]}
{"smiles": "COc1cc(C(=O)N2CCOCC2)cc(OC)c1OC", "note": "[Trimetozine]", "values": [{"measurement": "LPS % cell toxicity", "setting": "primary rat microglia [1]; [10]", "value": 0, "unit": "%"}, {"measurement": "inhibition at 10 µM", "setting": "[2]; [11]", "value": 12, "unit": "%"}, {"measurement": "inhibition at 10 µM", "setting": "[3]; [12]", "value": 2, "unit": "%"}, {"measurement": "Quadrant (FIG. 5b)", "setting": "[4]; [13]", "value": "Q4"}, {"measurement": "Fibrin % cell toxicity", "setting": "primary rat microglia [5]; [14]", "value": 1, "unit": "%"}]}
{"smiles": "O=C1C(CC[S+]([O-])c2ccccc2)C(=O)N(c2ccccc2)N1c1ccccc1", "note": "(stereo not drawn) [Sulfinpyrazone]", "values": [{"measurement": "LPS % cell toxicity", "setting": "primary rat microglia [1]; [10]", "value": 1, "unit": "%"}, {"measurement": "inhibition at 10 µM", "setting": "[2]; [11]", "value": 13, "unit": "%"}, {"measurement": "inhibition at 10 µM", "setting": "[3]; [12]", "value": -6, "unit": "%"}, {"measurement": "Quadrant (FIG. 5b)", "setting": "[4]; [13]", "value": "Q4"}, {"measurement": "Fibrin % cell toxicity", "setting": "primary rat microglia [5]; [14]", "value": 1, "unit": "%"}]}
{"smiles": "C[C@@H]1CN([C@H]2CC[C@](C#N)(c3ccc(F)cc3)CC2)CC[C@]1(C(=O)O)c1ccccc1", "note": "[Levocabastine]", "values": [{"measurement": "LPS % cell toxicity", "setting": "primary rat microglia [1]; [15]", "value": 0, "unit": "%"}, {"measurement": "inhibition at 10 µM", "setting": "[2]; [16]", "value": 4, "unit": "%"}, {"measurement": "inhibition at 10 µM", "setting": "[3]; [17]", "value": 7, "unit": "%"}, {"measurement": "Quadrant (FIG. 5b)", "setting": "[4]; [18]", "value": "Q4"}, {"measurement": "Fibrin % cell toxicity", "setting": "primary rat microglia [5]; [19]", "value": 1, "unit": "%"}]}
{"smiles": "CC(=O)OCC1=C(C(=O)O)N2C(=O)[C@@H](NC(=O)CSc3ccncc3)[C@H]2SC1", "note": "[Cefapirin]", "values": [{"measurement": "LPS % cell toxicity", "setting": "primary rat microglia [1]; [6]", "value": 0, "unit": "%"}, {"measurement": "inhibition at 10 µM", "setting": "[2]; [7]", "value": 7, "unit": "%"}, {"measurement": "inhibition at 10 µM", "setting": "[3]; [8]", "value": -26, "unit": "%"}, {"measurement": "Quadrant (FIG. 5b)", "setting": "[4]; primary HTS, 10 μM", "value": "Q4"}, {"measurement": "Fibrin % cell toxicity", "setting": "primary rat microglia [5]; [9]", "value": 0, "unit": "%"}]}
{"smiles": "CN1CCc2cc3c(cc2C1O)OCO3", "note": "(stereo not drawn) [Hydrastinine Hydrochloride]", "values": [{"measurement": "LPS % cell toxicity", "setting": "primary rat microglia [1]; [15]", "value": 0, "unit": "%"}, {"measurement": "inhibition at 10 µM", "setting": "[2]; [16]", "value": 22, "unit": "%"}, {"measurement": "inhibition at 10 µM", "setting": "[3]; [17]", "value": 0, "unit": "%"}, {"measurement": "Quadrant (FIG. 5b)", "setting": "[4]; [18]", "value": "Q4"}, {"measurement": "Fibrin % cell toxicity", "setting": "primary rat microglia [5]; [19]", "value": 1, "unit": "%"}]}
{"smiles": "O=C(O)c1ccccc1OP(=O)(O)O", "note": "[Fosfosal]", "values": [{"measurement": "LPS % cell toxicity", "setting": "primary rat microglia [1]; [15]", "value": 1, "unit": "%"}, {"measurement": "inhibition at 10 µM", "setting": "[2]; [16]", "value": 16, "unit": "%"}, {"measurement": "inhibition at 10 µM", "setting": "[3]; [17]", "value": -29, "unit": "%"}, {"measurement": "Quadrant (FIG. 5b)", "setting": "[4]; [18]", "value": "Q4"}, {"measurement": "Fibrin % cell toxicity", "setting": "primary rat microglia [5]; [19]", "value": 0, "unit": "%"}]}
{"smiles": "CN(C)CCC(c1ccc(Br)cc1)c1ccccn1", "note": "(stereo not drawn) [Brompheniramine]", "values": [{"measurement": "LPS % cell toxicity", "setting": "primary rat microglia [1]; [6]", "value": "−1", "unit": "%"}, {"measurement": "inhibition at 10 µM", "setting": "[2]; [7]", "value": -7, "unit": "%"}, {"measurement": "inhibition at 10 µM", "setting": "[3]; [8]", "value": -20, "unit": "%"}, {"measurement": "Quadrant (FIG. 5b)", "setting": "[4]; primary HTS, 10 μM", "value": "Q4"}, {"measurement": "Fibrin % cell toxicity", "setting": "primary rat microglia [5]; [9]", "value": 1, "unit": "%"}]}
{"smiles": "COC(=O)N/N=C/c1c[n+]([O-])c2ccccc2[n+]1[O-]", "note": "[Carbadox]", "values": [{"measurement": "LPS % cell toxicity", "setting": "primary rat microglia [1]; [6]", "value": 1, "unit": "%"}, {"measurement": "inhibition at 10 µM", "setting": "[2]; [7]", "value": 11, "unit": "%"}, {"measurement": "inhibition at 10 µM", "setting": "[3]; [8]", "value": -2, "unit": "%"}, {"measurement": "Quadrant (FIG. 5b)", "setting": "[4]; primary HTS, 10 μM", "value": "Q4"}, {"measurement": "Fibrin % cell toxicity", "setting": "primary rat microglia [5]; [9]", "value": 1, "unit": "%"}]}
{"smiles": "COc1cc(/C=C/C(N)=O)cc(OC)c1OC", "note": "[Cintriamide]", "values": [{"measurement": "LPS % cell toxicity", "setting": "primary rat microglia [1]; [6]", "value": 0, "unit": "%"}, {"measurement": "inhibition at 10 µM", "setting": "[2]; [7]", "value": 15, "unit": "%"}, {"measurement": "inhibition at 10 µM", "setting": "[3]; [8]", "value": -2, "unit": "%"}, {"measurement": "Quadrant (FIG. 5b)", "setting": "[4]; primary HTS, 10 μM", "value": "Q4"}, {"measurement": "Fibrin % cell toxicity", "setting": "primary rat microglia [5]; [9]", "value": 1, "unit": "%"}]}
{"smiles": "Cc1oncc1C(=O)Nc1ccc(C(F)(F)F)cc1", "note": "[Lefunamide, Leflunomide]", "values": [{"measurement": "LPS % cell toxicity", "setting": "primary rat microglia [1]; [15]", "value": 0, "unit": "%"}, {"measurement": "LPS % inhibition", "setting": "[2]; primary microglia HTS, LPS stimulation, activation = cell size >800 μm2", "value": 10, "unit": "%"}, {"measurement": "Fibrin % inhibition", "setting": "[3]; [17]", "value": "−22", "unit": "%"}, {"measurement": "Quadrant (FIG. 5b)", "setting": "[4]; [18]", "value": "Q4"}, {"measurement": "Fibrin % cell toxicity", "setting": "primary rat microglia [5]; [19]", "value": 0, "unit": "%"}]}
{"smiles": "COc1ccc2[nH]cc(CCNC(C)=O)c2c1", "note": "[Melatonin]", "values": [{"measurement": "LPS % cell toxicity", "setting": "primary rat microglia [1]; [20]", "value": 0, "unit": "%"}, {"measurement": "inhibition at 10 µM", "setting": "[2]; [21]", "value": -3, "unit": "%"}, {"measurement": "inhibition at 10 µM", "setting": "[3]; [22]", "value": 4, "unit": "%"}, {"measurement": "Quadrant (FIG. 5b)", "setting": "[4]; [18]", "value": "Q4"}, {"measurement": "Fibrin % cell toxicity", "setting": "primary rat microglia [5]; [23]", "value": 1, "unit": "%"}]}
{"smiles": "Cc1cc2cc3c(C)cc(=O)oc3c(C)c2o1", "note": "[Trioxsalen]", "values": [{"measurement": "LPS % cell toxicity", "setting": "primary rat microglia [1]; [10]", "value": 0, "unit": "%"}, {"measurement": "inhibition at 10 µM", "setting": "[2]; [11]", "value": 18, "unit": "%"}, {"measurement": "inhibition at 10 µM", "setting": "[3]; [12]", "value": -18, "unit": "%"}, {"measurement": "Quadrant (FIG. 5b)", "setting": "[4]; [13]", "value": "Q4"}, {"measurement": "Fibrin % cell toxicity", "setting": "primary rat microglia [5]; [14]", "value": 1, "unit": "%"}]}
{"smiles": "C=C1c2c(Cl)ccc(O)c2C(=O)C2=C(O)[C@]3(O)C(=O)C(C(N)=O)=C(O)[C@@H](N(C)C)[C@@H]3[C@@H](O)[C@H]12.O=C(O)c1cc(S(=O)(=O)O)ccc1O", "note": "[Meclocycline Sulfosalicylate]", "values": [{"measurement": "LPS % cell toxicity", "setting": "primary rat microglia [1]; [20]", "value": 0, "unit": "%"}, {"measurement": "LPS % inhibition", "setting": "[2]; primary microglia HTS, LPS stimulation, increased cell size (>800 μm^2) as marker of activation", "value": 18, "unit": "%"}, {"measurement": "Fibrin % inhibition", "setting": "[3]; [22]", "value": 20, "unit": "%"}, {"measurement": "Quadrant (FIG. 5b)", "setting": "[4]; [18]", "value": "Q4"}, {"measurement": "Fibrin % cell toxicity", "setting": "primary rat microglia [5]; [23]", "value": 1, "unit": "%"}]}
{"smiles": "CCOc1ccc2ccccc2c1C(=O)N[C@@H]1C(=O)N2[C@@H]1SC(C)(C)[C@@H]2C(=O)O", "note": "[Nafcillin Sodium]", "values": [{"measurement": "LPS % cell toxicity", "setting": "primary rat microglia [1]; [20]", "value": 0, "unit": "%"}, {"measurement": "inhibition at 10 µM", "setting": "[2]; [21]", "value": 15, "unit": "%"}, {"measurement": "inhibition at 10 µM", "setting": "[3]; [22]", "value": -7, "unit": "%"}, {"measurement": "Quadrant (FIG. 5b)", "setting": "[4]; [18]", "value": "Q4"}, {"measurement": "Fibrin % cell toxicity", "setting": "primary rat microglia [5]; [23]", "value": 0, "unit": "%"}]}
